According to ChEMBL document CHEMBL1132907, “The design and synthesis of the high efficacy, non-peptide CCK1 receptor agonist PD170292” (Bioorg Med Chem Lett, 2000):

Legend:
[1] = molecular target: T1, Cholecystokinin receptor type A (Rattus norvegicus, UniProt P30551); experiment: Compound was evaluated for the binding affinity towards rat pancreatic Cholecystokinin type A receptor
T1 sequence (P30551 whole entry): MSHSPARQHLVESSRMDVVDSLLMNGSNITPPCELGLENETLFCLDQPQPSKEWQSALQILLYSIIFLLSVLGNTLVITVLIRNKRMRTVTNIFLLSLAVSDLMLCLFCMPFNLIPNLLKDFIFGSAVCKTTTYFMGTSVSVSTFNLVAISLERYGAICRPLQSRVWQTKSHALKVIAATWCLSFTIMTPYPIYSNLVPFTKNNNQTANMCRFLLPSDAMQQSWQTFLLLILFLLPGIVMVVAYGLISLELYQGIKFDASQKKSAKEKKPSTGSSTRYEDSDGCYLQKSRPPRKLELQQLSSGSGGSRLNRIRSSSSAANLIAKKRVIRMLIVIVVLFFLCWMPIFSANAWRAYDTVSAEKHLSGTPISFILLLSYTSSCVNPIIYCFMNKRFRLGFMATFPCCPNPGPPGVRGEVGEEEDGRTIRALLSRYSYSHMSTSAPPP

[2] = molecular target: T2, Gastrin/cholecystokinin type B receptor (Mus musculus, UniProt P56481); experiment: Binding affinity towards Cholecystokinin type B receptor in mouse cortex membrane; format: cell membranes
T2 sequence (P56481 whole entry): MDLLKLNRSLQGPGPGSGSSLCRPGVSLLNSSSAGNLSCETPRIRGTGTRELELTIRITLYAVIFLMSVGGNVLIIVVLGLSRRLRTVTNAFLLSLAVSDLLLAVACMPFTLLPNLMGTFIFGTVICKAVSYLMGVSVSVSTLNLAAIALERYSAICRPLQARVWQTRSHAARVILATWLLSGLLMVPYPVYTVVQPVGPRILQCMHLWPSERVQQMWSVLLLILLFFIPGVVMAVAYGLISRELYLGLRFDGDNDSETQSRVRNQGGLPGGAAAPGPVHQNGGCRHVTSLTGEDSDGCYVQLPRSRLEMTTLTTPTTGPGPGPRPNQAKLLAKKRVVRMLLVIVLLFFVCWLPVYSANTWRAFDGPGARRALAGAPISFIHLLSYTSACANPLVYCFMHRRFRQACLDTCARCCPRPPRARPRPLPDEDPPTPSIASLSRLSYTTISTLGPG

Rattus norvegicus = organism: Rattus norvegicus; experiment: Compound was evaluated for the stimulation of amylase secretion in isolated rat pancreatic acini
Jurkat [3] = experiment: Compound was evaluated for calcium mobilization in Jurkat cells; format: functional, cell-based; conditions: Homo sapiens
Jurkat [4] = experiment: Compound was tested for [Ca2+] mobilization in Jurkat cells at 1 uM; Inactive; format: functional, cell-based, Homo sapiens

IC50 [1] [nM]	IC50 [2] [nM]	EC50 (Rattus norvegicus) [nM]	IC50 (Jurkat [3]) [nM]	EC50 (Jurkat [4])	Compound	EC50 (Jurkat [3]) [nM]
150	3600	480	–	–	O=C(CC(Cc1c[nH]c2ccccc12)(NC(=O)OC1C2CC3CC(C2)CC1C3)C(=O)NCCc1ccccc1)NCCCCNC(=O)Nc1ccccc1Cl (configuration not stated)	–
1.2	6.7	5	40	Not Active	Cc1ccccc1NC(=O)NCCCC[C@@H](CC(=O)O)NC(=O)[C@@](C)(Cc1c[nH]c2ccccc12)NC(=O)OC1C2CC3CC(C2)CC1C3 (some centres not stated) [PD-170292]	–
75	0.083	–	–	–	CC(Cc1c[nH]c2ccccc12)(NC(=O)OC1C2CC3CC(C2)CC1C3)C(=O)N[C@H](CC(=O)O)Cc1ccc(F)cc1 (single isomer, unassigned)	–

Compound	IC50 [1] [nM]	IC50 [2] [nM]	EC50 (Rattus norvegicus) [nM]	IC50 (Jurkat [3]) [nM]	EC50 (Jurkat [4])	EC50 (Jurkat [3]) [nM]
CSCC[C@H](NC(=O)[C@H](Cc1ccc(OS(=O)(=O)O)cc1)NC(=O)[C@@H](N)CC(=O)O)C(=O)NCC(=O)N[C@@H](Cc1c[nH]c2ccccc12)C(=O)N[C@@H](CCSC)C(=O)N[C@@H](CC(=O)O)C(=O)N[C@@H](Cc1ccccc1)C(N)=O [SINCALIDE]	–	–	0.02	–	–	2
